# In PubChem BioAssay (NCI):
#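 Grown in 96-well plates, cells were treated for 48 hours with each compound at five concentrations. Insufficient inhibition: endpoint recorded as highest concentration tested. At the TGI there is no net growth.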
# Legend:
# Assay in all cases: NCI tumour cell line growth inhibition, 48 h
# [1] = system: DU-145 prostate
# [2] = system: NCI-H522 lung
# [3] = system: OVCAR-8 ovarian
# [4] = system: SK-MEL-2 melanoma
# [5] = system: SN12C renal
# [6] = system: BT-549 breast
# [7] = system: HL-60(TB) leukemia
# [8] = system: HOP-62 NSCLC
# [9] = system: MOLT-4 leukemia
# [10] = system: EKVX NSCLC
Structure (SMILES),TGI [1],TGI [2],TGI [3],TGI [4],TGI [5],TGI [6],TGI [7],TGI [8],TGI [9],TGI [10]
O=c1/c(=C/c2ccc(-c3ccc(Cl)cc3Cl)o2)sc2n1[C@@H](c1ccc3c(c1)OCO3)C=C(c1cc(F)c(Cl)cc1Cl)N=2,> 100 µM,> 100 µM,> 100 µM,71.1 µM,> 100 µM,> 100 µM,> 100 µM,28.9 µM,> 100 µM,
C=C(C(=O)OC)[C@H]1CC/C(C)=C/CC/C(C)=C/CC[C@@]2(C)O[C@@H]2C1,58.2 µM,38.5 µM,31.4 µM,29.9 µM,31.2 µM,,30.9 µM,42.5 µM,35.5 µM,39.5 µM
CC(C)CC(NC(=O)C(COc1ccc([N+](=O)[O-])cc1)Cc1ccccc1)C(=O)Nc1ccccc1 (stereo not given),> 100 µM,55.2 µM,27.4 µM,74.1 µM,> 100 µM,29.7 µM,> 100 µM,,> 100 µM,91.4 µM
CN/N=C(\C(=O)Nc1ccc([N+](=O)[O-])cc1[N+](=O)[O-])C1NC(=O)NC1=O (stereo not given),,,> 100 µM,> 100 µM,> 100 µM,,> 100 µM,> 100 µM,> 100 µM,> 100 µM
C[C@@H]1OCC(O)C([C@H]2OC(c3ccccc3)=N[C@H]2CO)O1 (stereo not given in full),> 100 µM,> 100 µM,> 100 µM,> 100 µM,> 100 µM,,> 100 µM,> 100 µM,> 100 µM,> 100 µM
S=C(Nc1ccc2c(c1)Cc1ccccc1-2)Nc1ccc2c(c1)Cc1ccccc1-2,> 100 µM,> 100 µM,> 100 µM,,> 100 µM,> 100 µM,22.4 µM,> 100 µM,39.5 µM,> 100 µM
O=c1c(-c2ccc(O)cc2)coc2cc(O)cc(O)c12,> 100 µM,> 100 µM,> 100 µM,,> 100 µM,> 100 µM,> 100 µM,,> 100 µM,> 100 µM
COc1cccc(C2CC(=O)c3cccn32)c1 (stereo not given),> 100 µM,> 100 µM,> 100 µM,> 100 µM,> 100 µM,,96 µM,> 100 µM,> 100 µM,> 100 µM
CC(=O)Nc1ccc(/C=C(\NC(=O)c2ccccc2)C(=O)NNS(=O)(=O)c2ccc(C)cc2)cc1,,> 100 µM,> 100 µM,> 100 µM,> 100 µM,,> 100 µM,> 100 µM,> 100 µM,> 100 µM
Oc1ccc2ccccc2c1OCc1nnc(CCCCCCCCc2nnc(COc3c(O)ccc4ccccc34)o2)o1,> 100 µM,> 100 µM,,> 100 µM,> 100 µM,> 100 µM,,,> 100 µM,> 100 µM
C[n+]1c(-c2ccc(/C=N/Nc3ccnc(N/N=C/c4ccc(-c5cn6ccccc6[n+]5C)cc4)n3)cc2)cn2ccccc21,,> 100 µM,> 100 µM,,> 100 µM,,65.7 µM,> 100 µM,> 100 µM,> 100 µM
c1ccc(CNc2ncnc3n[nH]nc23)cc1,> 100 µM,> 100 µM,> 100 µM,> 100 µM,> 100 µM,,> 100 µM,> 100 µM,> 100 µM,> 100 µM
